Test results from patent publication US8273771B2, “Ischemic disorder or disease inhibitors” (Pronas Pharma AB, priority 2007, dated 2012).

Columns and labels:
Assay type in all cases: in vivo, rat
ETB receptor protein = assay: Immunohistochemistry of cerebral arteries after SAH; conditions: smooth muscle cell layer; sham 100±3%, SAH 167±4%
Text: (§1) The MCA and BA were dissected out and then placed onto Tissue TEK (Gibco) and frozen. They were then sectioned into 10 μm thick slices. The primary antibodies used were rabbit antihuman ETB (IBL, 16207), diluted 1:400, goat anti mouse 5-HT1B (Santa Cruz Biotechnologies, sc-1461), diluted 1:100, AT1 (Santa Cruz Biotechnologies), diluted 1:100, mouse anti rat CD31 (Serotec, MCA1746), diluted 1:200, and mouse anti rat smooth muscle actin (Serotec, MCA1905T) diluted 1:100. All dilutions were done in PBS with 10% fetal calf serum. The secondary antibodies used were donkeyantimouse Cy™5 conjugated (JacksonImmunoResearch, 715-175-150) 1:100, donkeyantirabbit Cy™3 conjugated (JacksonImmunoResearch, 711-165-152) 1:100 in PBS with 10% fetal calf serum. The antibodies were detected at the appropriate wavelength in a confocal microscopy (Zeiss, USA). As control, only secondary antibodies were used.
(§2) The images were analysed using the ImageJsoftware (http://rsb.info.nih.gov/ij/). The fluorescence in 4-6 different areas in each artery was measured and a mean value was calculated. These values are presented as percentage fluorescence in the SAH groups compared to the sham group, where the sham group is set to 100%.

AT1 receptor protein = assay: as above; conditions: smooth muscle cell layer; sham 100±7%, SAH 168±7%
Text: as §1, §2

ETA receptor mRNA = assay: Real-time PCR of receptor mRNA in cerebral arteries after SAH; conditions: MCA, BA and circle of Willis grouped
Experimental: (§3) To quantify mRNA for the ETA, ETB and 5-HT1B receptors, RT-PCR and real-time detection monitoring the PCR products was employed. Total cellular RNA was extracted from BA, MCA and circle of Willis using the Trizol RNA isolation kit (Invitrogen, USA) following the suppliers instructions. Briefly, the arteries were homogenized in 1 ml of Trizol (Invitrogen, Sweden) by using a TissueLyser (VWR, Sweden). Subsequently 200 μl of chloroform was added and the samples were incubated in room temperature for 3 min, followed by centrifugation at 15000 g for 15 min at 4° C. The supernatant was collected and the organic phase discarded. 200 μl of chloroform was again added to remove all traces of phenol and the samples were centrifuged at 15000 g for 15 at 4° C. The aqueous supernatant was again collected and to precipitate the RNA equal amount of isopropanol was added and the samples incubated overnight at −20° C.
(§4) Subsequently, the RNA was centrifuged at 15000 g for 20 min at 4° C. […] Total RNA was determined using a GeneQuant Pro spectrophotometer measuring absorbance at 260/280 (Amersham Pharmacia Biotech, Uppsala, Sweden).
(§5) Reverse transcription of total RNA to cDNA was carried out using the Gene Amp RNA kit (Perkin-Elmer Applied Biosystems, USA) in a Perkin-Elmer 2400 PCR machine at 42° C. for 90 min and then 72° C. for 10 min. The real-time quantitative PCR was performed with the GeneAmp SYBR Green PCR kit (PE Applied Biosystems) in a Perkin-Elmer real-time PCR machine (GeneAmp 5700 sequence detection system). […] The system automatically monitors the binding of a fluorescent dye to double-strand DNA by real-time detection of the fluorescence during each cycle of PCR amplification. […]
(§6) PCR experiments were performed on BA, MCA and circle of Willis from SAH, SAH treated with raf inhibitor or PKC inhibitor and sham operated rats. Data were analysed with the comparative cycle threshold (CT) method (28). The CT values of EF-1 mRNA were used as a reference to quantify the relative amount of ETA, ETB and 5-HT1B mRNA. […]

ETB receptor mRNA = assay: as above; conditions: MCA, BA and circle of Willis grouped; SAH rats
Experimental: as §3, §4, §5, §6

5-HT1B receptor mRNA = assay: as above; conditions: MCA, BA and circle of Willis grouped; SAH rats
Experimental: as §3, §4, §5, §6

Oc1cc(-c2nc(-c3ccccc3)[nH]c2-c2ccncc2)ccc1Cl [SB386023-b]
ETB receptor protein level, fluorescence compared to sham (ETB receptor protein): 109±5%
AT1 receptor protein level, fluorescence compared to sham (AT1 receptor protein): 105±10%
expression of ETA receptor mRNA, difference between sham, SAH and treated SAH (ETA receptor mRNA): no difference
enhanced expression of ETB receptor mRNA (ETB receptor mRNA): inhibited
enhanced expression of 5-HT1B receptor mRNA (5-HT1B receptor mRNA): inhibited
